We go through nine compounds from ChEMBL document CHEMBL3886157, “Heterocyclic carboxamides as modulators of kinase activity” (2015).

In general, IC50 refers to the concentration that gives 50% inhibition.

Assay [1] concerns the target Ribosomal protein S6 kinase beta-1 (Homo sapiens, UniProt P23443, T412E). The experiment in a line: P70S6K Enzyme Assay: P70S6K inhibitor compounds are diluted and plated in 96 well plates. A reaction mixture including the following components is then added to the compound plate to initiate the enzyme reaction; P70S6K (3 nM, T412E mutant, Millipore) is mixed with 24 uM ATP in an assay buffer containing 100 mM Hepes (pH 7.5), 5 mM MgCl2, 1 mM DTT, 0.015% Brij and 1 uM of the substrate peptide FITC-AHA-[…]-OH (derived from the S6 ribosomal protein sequence, FITC=fluorescein isothiocyanate, AHA=6-aminohexanoic acid). The reaction is incubated for 90 min at 25° C., before the addition of 10 mM EDTA to stop the reaction. The proportion of substrate and product (phosphorylated) peptide is analysed on a Caliper Life Sciences Lab Chip 3000, using a pressure of -1.4 psi, and upstream and downstream voltages of -3000 and -700 respectively. Product peaks are resolved before substrate peaks on the resulting chromatograms.

The target in assay [2] is RAC-alpha serine/threonine-protein kinase (Homo sapiens, UniProt P31749). The experiment in a line: AKT Enzyme Assay: A TTP Mosquito liquid handling instrument is used to place […] of the appropriate concentration of inhibitor in 100% DMSO (for a dose response curve calculation) into each well of a 384-well plate. To this reaction components are added to a final volume of 12.50 0.1 ng/uL His-AKT (Full Length), (Invitrogen, Part # P2999, Lot #641228C). 160 uM ATP (Fluka, 02055) 1 mM DTT (Sigma, D0632) 1 mM MgCl2 (Sigma, M1028) 1 uM substrate peptide (sequence FITC-AHA-[…]-NH2), synthesized by Tufts Peptide Synthesis service. 100 mM HEPES pH 7.5 (Calbiochem, 391338) 0.015% Brij-35 (Sigma, B4184)The reaction is incubated for 90 min at 25° C, and then stopped by the addition of 70 ul of Stop buffer (100 mM HEPES pH 7.5, 0.015% Brij-35, 10 mM EDTA (Sigma, E7889)).The plate is read on a Caliper LC 3000 in an Off-Chip mobility shift assay format, using the following parameters for a 12-sipper chip: screening pressure -2.3 psi, upstream voltage -500, and downstream voltage -3000.
Sequence of RAC-alpha serine/threonine-protein kinase (P31749 whole entry): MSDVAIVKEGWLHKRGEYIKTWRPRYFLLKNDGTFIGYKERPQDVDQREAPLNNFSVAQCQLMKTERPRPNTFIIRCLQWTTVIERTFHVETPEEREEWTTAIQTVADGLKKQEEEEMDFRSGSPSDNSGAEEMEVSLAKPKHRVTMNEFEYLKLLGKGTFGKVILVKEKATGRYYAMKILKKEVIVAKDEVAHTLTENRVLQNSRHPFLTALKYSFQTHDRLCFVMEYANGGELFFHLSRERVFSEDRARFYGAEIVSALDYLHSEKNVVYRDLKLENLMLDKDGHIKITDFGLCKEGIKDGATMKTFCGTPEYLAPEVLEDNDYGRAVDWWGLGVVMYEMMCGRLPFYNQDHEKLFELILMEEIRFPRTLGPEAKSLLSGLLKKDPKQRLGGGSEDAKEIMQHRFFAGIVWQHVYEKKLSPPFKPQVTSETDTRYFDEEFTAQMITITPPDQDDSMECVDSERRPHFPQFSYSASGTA

Sequence of Ribosomal protein S6 kinase beta-1 (P23443 whole entry T412E): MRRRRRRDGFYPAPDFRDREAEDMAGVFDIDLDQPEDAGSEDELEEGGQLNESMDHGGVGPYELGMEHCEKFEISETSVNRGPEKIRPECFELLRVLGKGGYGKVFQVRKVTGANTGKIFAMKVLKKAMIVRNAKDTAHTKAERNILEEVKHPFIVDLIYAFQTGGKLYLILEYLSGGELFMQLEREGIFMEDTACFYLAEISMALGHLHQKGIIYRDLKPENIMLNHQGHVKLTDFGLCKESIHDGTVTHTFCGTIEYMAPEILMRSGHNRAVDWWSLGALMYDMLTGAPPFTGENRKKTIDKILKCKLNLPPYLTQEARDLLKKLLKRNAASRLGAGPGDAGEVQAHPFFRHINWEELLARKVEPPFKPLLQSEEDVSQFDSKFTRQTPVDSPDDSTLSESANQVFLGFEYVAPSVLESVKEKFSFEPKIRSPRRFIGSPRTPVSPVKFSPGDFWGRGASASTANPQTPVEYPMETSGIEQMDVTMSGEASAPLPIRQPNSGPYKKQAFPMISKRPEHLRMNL

Take `NC(=O)c1ccc(NCC(c2ccccc2)N2CCNCC2)c2cncnc12` (racemic): the IC50 in assay [1] came to 170 nM.
The same measure, in the same setting: the figure for `NC(=O)c1ccc(N2CCC(NCc3ccc(Cl)c(Cl)c3)C2)c2cncnc12` (racemic) is 490 nM.
In the case of `NC(=O)c1ccc(NCCc2ccc(Cl)c(Cl)c2)c2cncnc12`, the IC50 was over 100000 nM in assay [2] and 98 nM in assay [1].
With `NC(=O)c1ccc(N2CCN(c3ccc(Cl)c(Cl)c3)CC2)c2cncnc12`, the IC50 in assay [2] and in assay [1] was over 100000 nM in each case.
`NC(=O)c1ccc(N2CCC(N)(C(=O)Nc3ccc(F)c(C(F)(F)F)c3)C2)c2cncnc12` (racemic): in assay [1], the 50% inhibitory concentration (IC50) is 270 nM.
Take `CNC[C@@H](Nc1ccc(C(N)=O)c2ncncc12)c1cccc(F)c1`: in assay [1], the IC50 was over 1000 nM.
Take `NC(=O)c1ccc(NCc2ccccc2)c2cncnc12`: the IC50 in assay [2] is 57000 nM; in assay [1], 690 nM.
For the compound `CN(Cc1ccc(Cl)c(Cl)c1)C1CCN(c2ccc(C(N)=O)c3ncncc23)C1` (racemic), the IC50 in assay [1] amounted to 570 nM.
Consider `NC(=O)c1ccc(NC(=O)C2CNC[C@@H]2c2cccc(F)c2)c2cccnc12` (some centres not stated), for which the IC50 in assay [1] is over 1000 nM.
